{"source": "patent US7563899B2", "about": "“(S)-N-methylnaltrexone” (Progenics Pharmaceuticals, Inc., priority 2005, dated 2009)", "key": {"[1]": {"target": "T1, μ-opioid receptors in the guinea pig ileum (Cavia porcellus, UniProt A0ACM8Q262)", "T1 sequence (A0ACM8Q262 1-400)": "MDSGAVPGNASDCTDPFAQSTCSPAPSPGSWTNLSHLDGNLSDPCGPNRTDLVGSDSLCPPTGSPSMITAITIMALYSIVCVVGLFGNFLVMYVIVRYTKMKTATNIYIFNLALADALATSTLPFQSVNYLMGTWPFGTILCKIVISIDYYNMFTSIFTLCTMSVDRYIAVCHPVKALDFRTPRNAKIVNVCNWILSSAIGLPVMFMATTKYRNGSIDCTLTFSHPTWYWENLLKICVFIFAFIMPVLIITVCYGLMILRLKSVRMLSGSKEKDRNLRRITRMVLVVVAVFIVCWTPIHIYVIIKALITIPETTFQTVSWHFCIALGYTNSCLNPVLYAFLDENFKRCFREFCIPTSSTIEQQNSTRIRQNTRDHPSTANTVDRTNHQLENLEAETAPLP", "assay": "Guinea pig ileum bioassay, test for antagonist activity (against DAMGO-induced response)", "conditions": "for Response to DAMGO (1.0E−07 M) in the presence of the compound: percent of control response to DAMGO, mean, n=2", "experimental": "(§1) Experimental Conditions. Segments of guinea pig terminal ileum were suspended in 20-ml organ baths filled with an oxygenated (95% O2 and 5% CO2) and pre-warmed (37° C.) physiological salt solution of the following composition (in mM): NaCl 118.0, KCl 4.7, MgSO4 1.2, CaCl2 2.5, KH2PO4 1.2, NaHCO3 25.0 and glucose 11.0 (pH 7.4). Additional experimental conditions were as described in Hutchinson et al. (1975) Brit. J. Pharmacol., 55: 541-546.\n(§2) Indomethacin (1 μM), nor-binaltorphimine (0.01 μM), methysergide (1 μM), ondansetron (10 μM) and GR113808 (0.1 μM) were also present throughout the experiments to prevent prostanoid release and to block the k-opioid, 5-HT2, 5-HT3 and 5-HT4 receptors, respectively. The tissues were connected to force transducers for isometric tension recordings. They were stretched to a resting tension of 1 g then allowed to equilibrate for 60 min during which time they were washed repeatedly and the tension readjusted. Thereafter, they were stimulated electrically with pulses of minimal intensity to trigger maximal contractions and 1 ms duration, delivered at 0.1 Hz by a constant current stimulator.\nTest for antagonist activity. […] Each concentration was left in contact with the tissues until a stable response was obtained or for a maximum of 15 min.\n(§3) Analysis and Expression of Results. The parameter measured was the maximum change in the amplitude of the electrically-evoked twitch contractions induced by each compound concentration."}, "[2]": {"target": "T2, human μ (mu, MOP) receptor (Homo sapiens, UniProt P35372)", "T2 construct": "expressed in transfected cells; host or cells: CHO cells", "T2 sequence (P35372 whole entry)": "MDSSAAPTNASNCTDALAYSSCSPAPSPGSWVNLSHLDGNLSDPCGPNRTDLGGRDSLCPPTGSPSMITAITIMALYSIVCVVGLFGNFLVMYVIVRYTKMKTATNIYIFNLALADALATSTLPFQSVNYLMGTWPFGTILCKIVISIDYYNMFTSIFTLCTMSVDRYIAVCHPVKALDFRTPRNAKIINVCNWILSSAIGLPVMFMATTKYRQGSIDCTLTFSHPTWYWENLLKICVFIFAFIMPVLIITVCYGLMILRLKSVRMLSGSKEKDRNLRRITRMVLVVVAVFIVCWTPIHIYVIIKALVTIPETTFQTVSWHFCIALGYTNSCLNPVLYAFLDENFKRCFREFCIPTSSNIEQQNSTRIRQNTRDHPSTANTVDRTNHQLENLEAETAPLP", "assay": "cAMP assay in CHO cells expressing human mu receptor, antagonist assay", "format": "cell-based", "conditions": "for cAMP antagonist assay value (Table IX.2): then 30 μM DAMGO, then forskolin", "experimental": "Thus full antagonist effect was equivalent to forskolin without any addition of μ-opioid agonist.\nCells were grown to confluence in 96-well plates. Cells were washed and equilibrated in physiological buffer before analysis. 20 ul of drug, 100 uM IBMX and 10 uM forskolin were added and incubated for 25 minutes at room temperature and then the reaction was stopped with the addition of 0.1 N HCl. Extracted cAMP level was determined via competitive EIA assay utilizing alkaline phosphatase. Additional experimental conditions were as described in Toll L., J Pharmacol Exp Ther. (1995) 273(2): 721-7."}, "[3]": {"tested_on": "gastrointestinal transit in rats", "assay": "Gastrointestinal transit (charcoal motility) in rats, alone or before morphine", "format": "in vivo, rat", "conditions": "for Mean Motility: ratio of length of charcoal transit/total intestine length, * p<0.05 vs vehicle", "experimental": "F. et al J. Pharmacol. Exptl. Therap. 133: 400-408, 1961; D. E. Gmerek, et al J. Pharmacol. Exptl. Ther. 236: 8-13, 1986; and O. Yamamoto et al Neurogastroenterol. Motil. 10: 523-532, 1998.\nA control group of rats received 2 mL/kg of a 0.9% saline solution (n=10). After 15 minutes, rats were subcutaneously injected with saline (1 mL/kg) or morphine (3 mg/kg). A 10% suspension of activated charcoal in 0.25% methylcellulose was administered orally at 10 mL/kg to the rats 20 minutes (±2 minutes) after the subcutaneous dose of morphine or saline. The rats were euthanized 25 minutes (±3 minutes) after receiving the charcoal and the intestines were removed and lightly stretched on moist paper along a meterstick. The small intestine from pyloric sphincter to caecum was measured and the distance traveled by the charcoal as a fraction of that length was evaluated for each rat.\nStatistically significant effects were determined by ANOVA with Tukey HSD Multiple Comparison Test. Differences with p values <0.05 were considered statistically significant.\nValues for charcoal motility were expressed as a percent effect and were calculated in the following manner: The individual distance traveled by the charcoal in centimeters was divided by the total length of the intestines in centimeters (pyloric sphincter to caecum) for each rat. Mean values were calculated for each group, and the percent effect was calculated using the following formula: […]"}, "[4]": {"target": "human recombinant mu opioid receptors (Homo sapiens, UniProt P35372)", "sequence (P35372 whole entry)": "as above", "assay": "Radioligand binding assay, mu opioid receptor", "experimental": "(§4) Radioligand binding assays were conducted to determine the binding specificity of S-N-methynaltrexone for μ-, κ-, and δ-opiate receptors using methods adapted from scientific literature (Simonin, F et al 1994, Mol. Pharmacol 46:1015-1021; Maguire, P. et al 1992, Eur. J. Pharmacol. 213:219-225; Simonin, F. et al PNAS USA 92(15):1431-1437; Wang, J B 1994, FEBS Lett 338:217-222)."}, "[5]": {"target": "T1, μ-opioid receptors in the guinea pig ileum", "assay": "Guinea pig ileum bioassay, test for agonist activity (inhibition of electrically evoked twitch contractions)", "conditions": "for Response to the compound (decrease in twitch contraction amplitude): percent of control response to DAMGO 1.0E−07 M", "experimental": "as §1, §2\nTest for agonist activity. […] The different concentrations were added cumulatively and each was left in contact with the tissues until a stable response was obtained or for a maximum of 15 min.\nas §3"}, "[6]": {"target": "human recombinant kappa opioid receptors (Homo sapiens, UniProt P41145)", "sequence (P41145 whole entry)": "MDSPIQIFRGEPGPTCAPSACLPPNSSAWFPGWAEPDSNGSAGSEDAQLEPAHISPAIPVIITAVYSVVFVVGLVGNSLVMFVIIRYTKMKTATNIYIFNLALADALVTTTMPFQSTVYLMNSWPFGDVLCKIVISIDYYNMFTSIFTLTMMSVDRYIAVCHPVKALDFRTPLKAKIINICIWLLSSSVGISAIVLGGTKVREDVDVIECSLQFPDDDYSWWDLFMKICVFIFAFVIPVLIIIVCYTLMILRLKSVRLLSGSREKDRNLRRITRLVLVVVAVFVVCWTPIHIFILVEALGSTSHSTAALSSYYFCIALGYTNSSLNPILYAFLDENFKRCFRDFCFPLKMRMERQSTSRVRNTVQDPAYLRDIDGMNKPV", "assay": "Radioligand binding assay, kappa opioid receptor", "experimental": "as §4"}, "[7]": {"conditions": "1 mg/kg sc + Morphine 3 mg/kg sc"}, "[8]": {"conditions": "3 mg/kg sc + Morphine 3 mg/kg sc"}, "[9]": {"conditions": "10 mg/kg sc + Morphine 3 mg/kg sc"}}, "note": "pEC50, pKi: −log10 of the molar value. Structures can show the parent of a compound that is named as a salt.", "data": [{"smiles": "C[N@@+]1(CC2CC2)CC[C@]23c4c5ccc(O)c4OC2C(=O)CCC3(O)C1C5", "note": "(stereo partly drawn) [S-MNTX, (S)-N-(cyclopropylmethyl)-noroxymorphone methyl salt]", "values": [{"measurement": "Response to DAMGO (1.0E−07 M) in the presence of the compound", "setting": "[1]; compound 1.0E−04 M", "result": 110, "unit": "%"}, {"measurement": "Response to DAMGO (1.0E−07 M) in the presence of the compound", "setting": "[1]; compound 1.0E−05 M", "result": 105, "unit": "%"}, {"measurement": "Response to DAMGO (1.0E−07 M) in the presence of the compound", "setting": "[1]; compound 1.0E−06 M", "result": 100, "unit": "%"}, {"measurement": "Response to DAMGO (1.0E−07 M) in the presence of the compound", "setting": "[1]; compound 1.0E−07 M", "result": 100, "unit": "%"}, {"measurement": "Response to DAMGO (1.0E−07 M) in the presence of the compound", "setting": "[1]; compound 1.0E−08 M", "result": 100, "unit": "%"}, {"measurement": "Response to DAMGO (1.0E−07 M) in the presence of the compound", "setting": "[1]; compound 3.0E−05 M", "result": 109, "unit": "%"}, {"measurement": "Response to DAMGO (1.0E−07 M) in the presence of the compound", "setting": "[1]; compound 3.0E−06 M", "result": 102, "unit": "%"}, {"measurement": "Response to DAMGO (1.0E−07 M) in the presence of the compound", "setting": "[1]; compound 3.0E−07 M", "result": 100, "unit": "%"}, {"measurement": "Response to DAMGO (1.0E−07 M) in the presence of the compound", "setting": "[1]; compound 3.0E−08 M", "result": 100, "unit": "%"}, {"measurement": "Antagonist activity IC50 value", "setting": "[1]; guinea pig ileum, against DAMGO 1.0E−07 M", "result": "No antagonist activity"}, {"measurement": "antagonist effect in cAMP assay", "setting": "[2]; cAMP antagonist assay", "result": "no antagonist effect"}, {"measurement": "cAMP antagonist assay value (Table IX.2)", "setting": "[2]; log{M} conc −4.0", "result": "−13"}, {"measurement": "cAMP antagonist assay value (Table IX.2)", "setting": "[2]; log{M} conc −4.5", "result": "−13"}, {"measurement": "cAMP antagonist assay value (Table IX.2)", "setting": "[2]; log{M} conc −5.0", "result": "−9"}, {"measurement": "cAMP antagonist assay value (Table IX.2)", "setting": "[2]; log{M} conc −5.5", "result": "−8"}, {"measurement": "cAMP antagonist assay value (Table IX.2)", "setting": "[2]; log{M} conc −6.0", "result": "−1"}, {"measurement": "cAMP antagonist assay value (Table IX.2)", "setting": "[2]; log{M} conc −6.5", "result": 9}, {"measurement": "cAMP antagonist assay value (Table IX.2)", "setting": "[2]; log{M} conc −7.0", "result": 5}, {"measurement": "cAMP antagonist assay value (Table IX.2)", "setting": "[2]; log{M} conc −7.5", "result": 6}, {"measurement": "cAMP antagonist assay value (Table IX.2)", "setting": "[2]; log{M} conc −8.0", "result": 4}, {"measurement": "cAMP antagonist assay value (Table IX.2)", "setting": "[2]; log{M} conc −9.0", "result": 0}, {"measurement": "Percent Decrease", "setting": "[3]; [7]", "result": 54, "unit": "%"}, {"measurement": "Mean Motility", "setting": "[3]; [7]", "result": "0.281*"}, {"measurement": "Percent Decrease", "setting": "[3]; [8]", "result": 57, "unit": "%"}, {"measurement": "Mean Motility", "setting": "[3]; [8]", "result": "0.258*"}, {"measurement": "Percent Decrease", "setting": "[3]; [9]", "result": 80, "unit": "%"}, {"measurement": "Mean Motility", "setting": "[3]; [9]", "result": "0.122*"}, {"measurement": "Percent Decrease", "setting": "[3]; 10 mg/kg sc + Saline", "result": 21, "unit": "%"}, {"measurement": "Mean Motility", "setting": "[3]; 10 mg/kg sc + Saline", "result": "0.476*"}, {"measurement": "effect on GI transit in combination with / prior to morphine", "setting": "[3]; rats, sc, 15 minutes before morphine 3 mg/kg", "result": "dramatic synergistic agonist effect in decreasing GI motility"}, {"measurement": "effect on GI transit when administered alone", "setting": "[3]; rats, sc, alone", "result": "decreased GI motility"}, {"measurement": "pKi", "setting": "[4]", "result": 6.70}, {"measurement": "Response to the compound (decrease in twitch contraction amplitude)", "setting": "[5]; 1.0E−04 M, mean, n=2", "result": 109, "unit": "%"}, {"measurement": "Response to the compound (decrease in twitch contraction amplitude)", "setting": "[5]; 1.0E−05 M, mean, n=2", "result": 92, "unit": "%"}, {"measurement": "Response to the compound (decrease in twitch contraction amplitude)", "setting": "[5]; 1.0E−06 M, mean, n=2", "result": 35, "unit": "%"}, {"measurement": "Response to the compound (decrease in twitch contraction amplitude)", "setting": "[5]; 1.0E−07 M, mean, n=2", "result": 5, "unit": "%"}, {"measurement": "Response to the compound (decrease in twitch contraction amplitude)", "setting": "[5]; 1.0E−08 M, mean, n=2", "result": 0, "unit": "%"}, {"measurement": "Response to the compound (decrease in twitch contraction amplitude)", "setting": "[5]; 3.0E−05 M, mean, n=2", "result": 109, "unit": "%"}, {"measurement": "Response to the compound (decrease in twitch contraction amplitude)", "setting": "[5]; 3.0E−06 M, mean, n=2", "result": 59, "unit": "%"}, {"measurement": "Response to the compound (decrease in twitch contraction amplitude)", "setting": "[5]; 3.0E−07 M, mean, n=2", "result": 16, "unit": "%"}, {"measurement": "Response to the compound (decrease in twitch contraction amplitude)", "setting": "[5]; 3.0E−08 M, mean, n=2", "result": 0, "unit": "%"}, {"measurement": "Response to the compound +naloxone", "setting": "[5]; compound 1.0E−04 M + naloxone 1.0E−07 M, percent of control response to DAMGO, mean, n=2", "result": 17, "unit": "%"}, {"measurement": "behaviour at the μ-opioid receptors in this tissue", "setting": "[5]; field-stimulated guinea pig ileum", "result": "behaves as an agonist"}, {"measurement": "pEC50", "setting": "[5]; guinea pig ileum, linear regression of concentration-response curve", "result": 5.70}, {"measurement": "pKi", "setting": "[6]", "result": 5.75}]}]}
